Data taken from US7771967B2, “Nucleic acid encoding apolipoprotein E-I3” (The J. David Gladstone Institutes, priority 2006, dated 2010).

Assays:
[1] = Kainic acid injection, seizure activity in mice; assay type: in vivo, mouse; conditions: 25 mg/kg intraperitoneally, wildtype and human apoE3 or apoE4 knock-in mice, all mice
Method: (§1) Kainic acid injections. Kainic acid crosses the blood-brain barrier and induces excitotoxic CNS injury, particularly in the hippocampus and neocortex. Wildtype and human apoE3 or apoE4 knock-in mice at 4-6 months of age were injected intraperitoneally with kainic acid (Sigma) dissolved in saline (0.9%) at 25 mg/kg body weight in one dose, as described. Within ˜15 min, all mice developed seizures. Seizure activity was assessed as described. […] Mice were killed 1-6 days after the injection of kainic acid.

[2] = system: apoE-I3 mRNA; assay: qRT-PCR of apoE-I3 in hippocampus and cortex of kainic acid-treated mice; assay type: in vivo, mouse; conditions: human apoE knock-in mice, n=3
Method: ApoE-I3 and apoE mRNA levels in different samples were determined in duplicate by quantitative fluorogenic reverse transcription-PCR (qRT-PCR) using GAPDH mRNA as an internal control. RT reactions were performed with Superscript First-strand Synthesis System Kits (Invitrogen, Carlsbad, Calif.) as described earlier. qRT-PCR reactions consisted of 10 μl of diluted cDNA reaction mixture (equivalent to 4.0 ng of RNA template), 12.5 μl of SYBR Green PCR master mix (Applied Biosystems), and 300 nM of each forward and backward primer in a final volume of 25 μl. Serial dilution of pooled cDNA samples from all cells or tissues were used to generate standard curves to determine the relative levels of specific mRNAs in individual samples. The apoE-I3 mRNA levels were then calculated and normalized to the internal GAPDH mRNA standards.
as §1
Preparation of mouse brain tissues. […]

Structure (SMILES): C=C(C)[C@H]1CN[C@H](C(=O)O)[C@H]1CC(=O)O [kainic acid, Kainic acid]
- time from injection to seizures [1]: ≤ 15 min
- increase of apoE-I3 expression (qRT-PCR) ([2]; cortex): not in the cortex
- increase of apoE-I3 expression (qRT-PCR) ([2]; hippocampus): twofold
